Values quoted from earlier work in patent publication EP3137069B1, “NANOPARTICLE FORMULATION CONTAINING FARNESYLTHIOSALICYLIC ACID (SALIRASIB)” (Pehlivan, Sibel, priority 2014, dated 2015).
In brackets after ≈: the same amount, converted by molar mass.

solubility in organic solvents (organic solvents like ethanol, DMSO and dimethylformamide): 20 mg/mL (≈ 55.8 mM)
solubility in water (water): insoluble
SMILES: CC(C)=CCCC(C)=CCCC(C)=CCSc1ccccc1C(=O)O [FTA, Farnesylthiosalicylic acid]
